Reference: paper PMC10607054 (International Journal of Molecular Sciences, 2023)
pEC50: −log10 of the molar value. Where two headings read alike, the source gives them in different places.

Assays:
[1] = system: PPAR-responsive element (PPRE); experiment: PPRE-driven (J3TKpGL3, apo-AII promoter) Dual-Luciferase reporter assay in melanoma cells; format: cell-based; conditions: 10^−4 M, 40 h, human melanoma cells WM239A and A375P; vs non-ligand stimulated control
Description: The transcriptional activation of the PPRE promoter was tested using the J3TKpGL3 reporter plasmid, which contains a luciferase gene driven by the PPAR-responsive element (PPRE), which consists of three copies of the J site from the apo-AII gene promoter. The activation of PPAR elements was evaluated in melanoma cells following stimulation with a Firefly–Renilla Dual-Luciferase Reporter System (Promega, Madison, WI, USA). Experiments were carried out using human melanoma line WM239A and A375P (Trust Functional Genomics Cell Bank, London, UK) cells cultured in RPMI culture medium (ThermoFisher Scientific, Waltham, MA, USA) supplemented with 10% fetal bovine serum (EURx, Gdansk, Poland) at 37 °C, with a 5% CO2 content. […] Luciferase activity was measured using a commercial kit (Luciferase Assay System, Promega) according to the instructions of the supplier and assessed in a chemiluminometer (Synergy HT; Bio-Tek, Winooski, VT, USA)) using the Dual-Reporter Luciferase Assay System (Promega, Madison, WI, USA).

[2] = biological target: T1, PPARγ ligand-binding domain (Homo sapiens, UniProt P37231); experiment: LanthaScreen TR-FRET PPARγ Coactivator Assay Kit (binding to PPARγ LBD); format: biochemical; conditions: for EC50: LanthaScreen TR-FRET PPARγ coactivator assay, PPARγ LBD, two independent dose responses, 3 to 4 replicas per assay; for pEC50: value in Figure 3A, representative experiment
T1 construct: PPARγ-LBD was added to the compounds; purchased Life Technologies Corporation
T1 sequence (P37231 238-503 limits assumed): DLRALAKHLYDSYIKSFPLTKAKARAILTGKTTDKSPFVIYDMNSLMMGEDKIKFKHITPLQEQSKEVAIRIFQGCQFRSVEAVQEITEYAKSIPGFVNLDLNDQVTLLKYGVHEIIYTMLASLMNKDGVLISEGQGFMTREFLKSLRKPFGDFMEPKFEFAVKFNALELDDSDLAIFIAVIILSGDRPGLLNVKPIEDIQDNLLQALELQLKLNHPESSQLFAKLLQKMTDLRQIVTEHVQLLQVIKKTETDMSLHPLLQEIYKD
Description: A PPARγ receptor binding assay was performed using the LanthaScreen™ TR-FRET PPARγ Coactivator Assay Kit (Life Technologies Corporation, Grand Island, NY, USA) following the manufacturer’s protocol. Briefly, PPARγ-LBD was added to the compounds, followed by the addition of the antibody (Tb-anti-GST) and a mixture of peptide (Fluorescein-TRAP220/DRIP-2). The reaction mixture was incubated at room temperature for 2 h or overnight.

AhR = biological target: T2, AhR (Homo sapiens, UniProt P35869); experiment: cell-based Human AhR Reporter Assay System (luciferase); conditions: for EC50: Human AhR Reporter Assay System, two independent dose responses, 3 to 4 replicas per assay, mean ± spread (n = 2); for pEC50: value in Figure 1, representative experiment
T2 construct: purchased INDIGO Biosciences
T2 sequence (P35869 11-848): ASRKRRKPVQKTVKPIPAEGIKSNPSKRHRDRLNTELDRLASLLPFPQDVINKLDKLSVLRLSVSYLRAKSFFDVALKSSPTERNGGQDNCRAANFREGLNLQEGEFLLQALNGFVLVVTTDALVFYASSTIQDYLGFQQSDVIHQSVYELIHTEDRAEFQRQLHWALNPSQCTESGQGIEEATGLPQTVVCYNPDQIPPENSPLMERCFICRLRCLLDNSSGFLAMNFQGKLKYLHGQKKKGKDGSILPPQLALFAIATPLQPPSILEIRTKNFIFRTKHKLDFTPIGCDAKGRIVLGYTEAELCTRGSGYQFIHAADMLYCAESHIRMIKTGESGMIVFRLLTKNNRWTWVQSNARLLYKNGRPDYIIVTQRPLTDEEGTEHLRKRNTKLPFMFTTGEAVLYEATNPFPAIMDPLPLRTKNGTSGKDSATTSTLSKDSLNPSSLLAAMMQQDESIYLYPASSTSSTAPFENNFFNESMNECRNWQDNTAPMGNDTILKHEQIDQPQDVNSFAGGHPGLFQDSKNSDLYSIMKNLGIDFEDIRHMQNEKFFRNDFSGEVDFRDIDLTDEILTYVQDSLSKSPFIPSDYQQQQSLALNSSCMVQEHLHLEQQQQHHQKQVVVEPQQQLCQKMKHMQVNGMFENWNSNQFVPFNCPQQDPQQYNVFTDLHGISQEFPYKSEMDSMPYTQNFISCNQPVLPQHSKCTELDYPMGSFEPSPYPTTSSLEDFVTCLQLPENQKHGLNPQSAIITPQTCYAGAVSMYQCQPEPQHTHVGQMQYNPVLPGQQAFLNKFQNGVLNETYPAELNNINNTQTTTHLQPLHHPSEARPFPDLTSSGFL
Description: Briefly, the reporter cells were recovered using the cell recovery medium for 5 h. […] Luciferase detection reagent was added after discarding the media and luminescence was measured using a Citation 5 Cell Imaging Multi-Mode Reader (BioTek, Winooski, VT, USA).

[3] = read-out: EC50 (PPARγ, representative dose response, Figure 3A)
[4] = read-out: EC50 (AhR, representative dose response, Figure 1)

Q: `N[C@@H](Cc1c[nH]c2ccc(O)cc12)C(=O)O` [5(OH)tryptophan, 5-hydroxytryptophan] was tested. Which “stimulation of transcriptional activity of (PPRE)3-containing ApoA-II gene promoter (luciferase, RLU)” value (from here on “stimulation”) [1] did it give?
A: statistically significant stimulation

Q: What does the source list for `COc1ccc(NC=O)c(C(=O)CCNC(C)=O)c1` [AFMK, N^1-acetyl-N^2-formyl-5-methoxykynuramine]?
A: EC50 ([2]; read-out: EC50 (M) PPARγ): 0.00028 M; pEC50 [2, 3]: 3.96; EC50 (AhR; read-out: EC50 (M) AhR): 4.4e-05 M; pEC50 (AhR; [4]): 4.12; stimulation of transcriptional activity of (PPRE)3-containing ApoA-II gene promoter (luciferase, RLU) [1]: statistically significant stimulation

Q: Which EC50 ([2]; read-out: EC50 (M) PPARγ) does the source give for `COc1cc2c(CCNC(C)=O)c[nH]c2cc1O` [6-Hydroxymelatonin, 6-hydroxymelatonin] here?
A: 0.0037 M

Q: What about the pEC50 [2, 3] of the same compound?
A: 4.00

Q: And the EC50 (AhR; read-out: EC50 (M) AhR)?
A: 3.1e-05 M

Q: And the pEC50 (AhR; [4])?
A: 4.48

Q: What about the “stimulation” value [1] of the same compound?
A: statistically significant stimulation

Q: How did the EC50 ([2]; EC50 (M) PPARγ) turn out when `COc1ccc2[nH]cc(CCN)c2c1` [5-MTT, 5-methoxytryptamine] was run?
A: 3e-05 M

Q: And the pEC50 ([2]; EC50 (PPARγ, representative dose response, Figure 3A))?
A: 4.20

Q: What about the pEC50 (AhR; EC50 (AhR, representative dose response, Figure 1)) of the same compound?
A: 3.30

Q: What about the EC50 (AhR; EC50 (M) AhR) of the same compound?
A: 0.00029 M

Q: For `COc1ccc2[nH]cc(CCNC(C)=O)c2c1` [Melatonin, N-acetyl-5-methoxytryptamine, reference compound], which EC50 ([2]; read-out: EC50 (M) PPARγ) is on record?
A: 0.0012 M

Q: What about the pEC50 [2, 3] of the same compound?
A: 3.02

Q: What about the “stimulation” value [1] of the same compound?
A: statistically significant stimulation
